Target: purified human Factor XIa (Homo sapiens (Human), UniProt P03951)
Experiment: Factor XIa assay (chromogenic substrate S-2366 hydrolysis, Ki)
Type: biochemical
Conditions: measured at 37° C.
Experimental: The effectiveness of compounds of the present invention as inhibitors of the coagulation Factors XIa, VIIa, IXa, Xa, XIIa, plasma kallikrein or thrombin, can be determined using a relevant purified serine protease, respectively, and an appropriate synthetic substrate. The rate of hydrolysis of the chromogenic or fluorogenic substrate by the relevant serine protease was measured both in the absence and presence of compounds of the present invention. […] A decrease in the rate of absorbance or fluorescence change in the presence of inhibitor is indicative of enzyme inhibition. Such methods are known to one skilled in the art. The results of this assay are expressed as the inhibitory constant, Ki.
Factor XIa determinations were made in 50 mM HEPES buffer at pH 7.4 containing 145 mM NaCl, 5 mM KCl, and 0.1% PEG 8000 (polyethylene glycol; JT Baker or Fisher Scientific). Determinations were made using purified human Factor XIa at a final concentration of 25-200 pM (Haematologic Technologies) and the synthetic substrate S-2366 (pyroGlu-Pro-Arg-pNA; CHROMOGENIX® or AnaSpec) at a concentration of 0.0002-0.001 M.
The Michaelis constant, Km, for substrate hydrolysis by each protease, was determined at 25° C. or 37° C. in the absence of inhibitor. Values of Ki were determined by allowing the protease to react with the substrate in the presence of the inhibitor. […] The following relationships were used to calculate Ki values: (Vmax*S)/(Km+S); (vo−vs)/vs=I/(Ki(1+S/Km)) for a competitive inhibitor with one binding site; or vs/vo=A+(B−A)/(1+(I/IC50)^n); and Ki=IC50/(1+S/Km) for a competitive inhibitor where: […]

purified human Factor XIa, sequence (P03951 388-625): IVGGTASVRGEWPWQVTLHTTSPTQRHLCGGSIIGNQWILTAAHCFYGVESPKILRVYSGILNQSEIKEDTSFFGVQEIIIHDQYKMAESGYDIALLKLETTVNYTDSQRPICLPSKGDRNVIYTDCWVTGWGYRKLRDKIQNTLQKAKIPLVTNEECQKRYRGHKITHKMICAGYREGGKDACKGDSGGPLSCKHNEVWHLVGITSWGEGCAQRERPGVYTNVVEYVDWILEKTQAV
purified human Factor XIa, sequence (P03951 19-387 partner): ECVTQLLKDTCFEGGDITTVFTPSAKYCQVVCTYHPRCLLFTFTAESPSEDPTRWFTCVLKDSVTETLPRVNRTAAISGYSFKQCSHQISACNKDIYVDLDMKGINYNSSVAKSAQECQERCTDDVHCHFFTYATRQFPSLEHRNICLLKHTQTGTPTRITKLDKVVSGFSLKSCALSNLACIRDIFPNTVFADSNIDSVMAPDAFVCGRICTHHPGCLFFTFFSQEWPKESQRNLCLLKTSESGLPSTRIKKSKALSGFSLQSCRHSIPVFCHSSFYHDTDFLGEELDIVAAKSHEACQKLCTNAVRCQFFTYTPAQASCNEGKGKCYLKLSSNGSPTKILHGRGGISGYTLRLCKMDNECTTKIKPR

| Compound | Ki |
| --- | --- |
| COC(=O)Nc1ccc2c(c1)NC(=O)CCCCCC(C(=O)NCCc1cc(Cl)ccc1-n1cnnn1)NC2=O (racemic) [Example 1, (±)-Methyl N-[8-({2-[5-chloro-2-(1H-1,2,3,4-tetrazol-1-yl)phenyl]ethyl}carbamoyl)-2,10-dioxo-1,2,3,4,5,6,7,8,9,10-decahydro-1,9-benzodiazacyclododecin-13-yl]carbamate] | 17.9 nM |
| COC(=O)Nc1ccc2c(c1)NC(=O)CCCCCC(C(=O)NC1CCN(C(=N)N)CC1)NC2=O (racemic) [Example 4, (±)-Methyl N-{8-[(1-carbamimidoylpiperidin-4-yl)carbamoyl]-2,10-dioxo-1,2,3,4,5,6,7,8,9,10-decahydro-1,9-benzodiazacyclododecin-13-yl}carbamate] | 1490 nM |
| COC(=O)Nc1ccc2c(c1)NC(=O)CCCCCC(C(=O)NCC1CCN(C(=N)N)CC1)NC2=O (racemic) [Example 5, (±)-Methyl N-(8-{[(1-carbamimidoylpiperidin-4-yl)methyl]carbamoyl}-2,10-dioxo-1,2,3,4,5,6,7,8,9,10-decahydro-1,9-benzodiazacyclododecin-13-yl)carbamate] | 825 nM |
| COC(=O)Nc1ccc2c(c1)NC(=O)CCCCCC(C(=O)NCCC1CCN(C(=N)N)CC1)NC2=O (racemic) [Example 6, (±)-Methyl N-(8-{[2-(1-carbamimidoylpiperidin-4-yl)ethyl]carbamoyl}-2,10-dioxo-1,2,3,4,5,6,7,8,9,10-decahydro-1,9-benzodiazacyclododecin-13-yl)carbamate] | 627 nM |
| COC(=O)Nc1ccc2c(c1)NC(=O)CCCCCC(C(=O)NC1Cc3ccccc3NC1=O)NC2=O (racemic) [Example 7, (±)-Methyl N-{2,10-dioxo-8-[(2-oxo-1,2,3,4-tetrahydroquinolin-3-yl)carbamoyl]-1,2,3,4,5,6,7,8,9,10-decahydro-1,9-benzodiazacyclododecin-13-yl}carbamate] | 708 nM |
| COC(=O)Nc1ccc2c(c1)NC(=O)CCCCCC(C(=O)NCc1csc3ccc(Cl)cc13)NC2=O (racemic) [Example 8, (±)-Methyl N-(8-{[(5-chloro-1-benzothiophen-3-yl)methyl]carbamoyl}-2,10-dioxo-1,2,3,4,5,6,7,8,9,10-decahydro-1,9-benzodiazacyclododecin-13-yl)carbamate] | 1340 nM |
| COC(=O)Nc1ccc2c(c1)NC(=O)CCCCCC(C(=O)N1CCCC(c3cccc(OC)c3)C1)NC2=O (racemic) [Example 10, (±)-Methyl N-{8-[3-(3-methoxyphenyl)piperidine-1-carbonyl]-2,10-dioxo-1,2,3,4,5,6,7,8,9,10-decahydro-1,9-benzodiazacyclododecin-13-yl}carbamate] | 2620 nM |
| COC(=O)Nc1ccc2c(c1)NC(=O)CCC=CCC(C(=O)NCCc1cc(Cl)ccc1-n1cnnn1)NC2=O (racemic) [Example 22, (E/Z)-(±)-Methyl N-[8-({2-[5-chloro-2-(1H-1,2,3,4-tetrazol-1-yl)phenyl]ethyl}carbamoyl)-2,10-dioxo-1,2,3,4,7,8,9,10-octahydro-1,9-benzodiazacyclododecin-13-yl]carbamate] | < 5 nM |
| O=C1CCC=CCC(C(=O)NCCc2cc(Cl)ccc2-n2cnnn2)NC(=O)c2ccccc2N1 (racemic) [Example 27, (E/Z)-(±)-N-{2-[5-Chloro-2-(1H-1,2,3,4-tetrazol-1-yl)phenyl]ethyl}-2,10-dioxo-1,2,3,4,7,8,9,10-octahydro-1,9-benzodiazacyclododecine-8-carboxamide] | 39.1 nM |
| N=C(N)N1CCC(CNC(=O)C2CC=CCCC(=O)Nc3ccccc3C(=O)N2)CC1 (racemic) [Example 29, (E/Z)-(±)-N-[(1-Carbamimidoylpiperidin-4-yl)methyl]-2,10-dioxo-1,2,3,4,7,8,9,10-octahydro-1,9-benzodiazacyclododecine-8-carboxamide] | 1400 nM |
| N=C(N)N1CCC(NC(=O)C2C/C=C\CCC(=O)Nc3ccccc3C(=O)N2)CC1 (racemic) [Example 30, (Z)-(±)-N-(1-Carbamimidoylpiperidin-4-yl)-2,10-dioxo-1,2,3,4,7,8,9,10-octahydro-1,9-benzodiazacyclododecine-8-carboxamide] | 2200 nM |
| N=C(N)N1CCC(NC(=O)C2C/C=C/CCC(=O)Nc3ccccc3C(=O)N2)CC1 (racemic) [Example 31, (E)-(±)-N-(1-Carbamimidoylpiperidin-4-yl)-2,10-dioxo-1,2,3,4,7,8,9,10-octahydro-1,9-benzodiazacyclododecine-8-carboxamide] | 811 nM |
| COC(=O)Nc1ccc2c(c1)NC(=O)CCCCCC(C(=O)NCCc1cc(Cl)ccc1-n1cnnn1)NC2=O (single isomer, unassigned) [Example 2, Methyl N-[8-({2-[5-chloro-2-(1H-1,2,3,4-tetrazol-1-yl)phenyl]ethyl}carbamoyl)-2,10-dioxo-1,2,3,4,5,6,7,8,9,10-decahydro-1,9-benzodiazacyclododecin-13-yl]carbamate] | 2180 nM |
| COC(=O)Nc1ccc2c(c1)NC(=O)CCCCCC(C(=O)NCCc1cc(Cl)ccc1-n1cnnn1)NC2=O (single isomer, unassigned) [Example 3, Methyl N-[8-({2-[5-chloro-2-(1H-1,2,3,4-tetrazol-1-yl)phenyl]ethyl}carbamoyl)-2,10-dioxo-1,2,3,4,5,6,7,8,9,10-decahydro-1,9-benzodiazacyclododecin-13-yl]carbamate] | 41.9 nM |
| COC(=O)Nc1ccc2c(c1)NC(=O)CC/C=C\CC(C(=O)NCCc1cc(Cl)ccc1-n1cnnn1)NC2=O (single isomer, unassigned) [Example 23, (Z)-Methyl N-[8-({2-[5-chloro-2-(1H-1,2,3,4-tetrazol-1-yl)phenyl]ethyl}carbamoyl)-2,10-dioxo-1,2,3,4,7,8,9,10-octahydro-1,9-benzodiazacyclododecin-13-yl]carbamate] | 157 nM |
| COC(=O)Nc1ccc2c(c1)NC(=O)CC/C=C\CC(C(=O)NCCc1cc(Cl)ccc1-n1cnnn1)NC2=O (single isomer, unassigned) [Example 24, (Z)-Methyl N-[8-({2-[5-chloro-2-(1H-1,2,3,4-tetrazol-1-yl)phenyl]ethyl}carbamoyl)-2,10-dioxo-1,2,3,4,7,8,9,10-octahydro-1,9-benzodiazacyclododecin-13-yl]carbamate] | 153 nM |
| COC(=O)Nc1ccc2c(c1)NC(=O)CC/C=C/CC(C(=O)NCCc1cc(Cl)ccc1-n1cnnn1)NC2=O (single isomer, unassigned) [Example 25, (E)-Methyl N-[8-({2-[5-chloro-2-(1H-1,2,3,4-tetrazol-1-yl)phenyl]ethyl}carbamoyl)-2,10-dioxo-1,2,3,4,7,8,9,10-octahydro-1,9-benzodiazacyclododecin-13-yl]carbamate] | < 5 nM |
| COC(=O)Nc1ccc2c(c1)NC(=O)CC/C=C/CC(C(=O)NCCc1cc(Cl)ccc1-n1cnnn1)NC2=O (single isomer, unassigned) [Example 26, (E)-Methyl N-[8-({2-[5-chloro-2-(1H-1,2,3,4-tetrazol-1-yl)phenyl]ethyl}carbamoyl)-2,10-dioxo-1,2,3,4,7,8,9,10-octahydro-1,9-benzodiazacyclododecin-13-yl]carbamate] | 64.1 nM |

From patent US10081623B2, “Diamide macrocycles that are FXIa inhibitors” (BRISTOL-MYERS SQUIBB COMPANY, priority 2014, dated 2018)
